Results reported in patent publication US8268809B2, “Kinase inhibitors for preventing or treating pathogen infection and method of use thereof” (priority 2006, dated 2012).
“Also recorded” adds a separate entry of the source.

System: vaccinia virus
Format: cell-based
Wherever VACCINIA PLAQUE ASSAY 2 is given: test concentration or dose not given here.

| Structure (SMILES) | Plaque phenotype due to drug treatment (FIGS. 1, 2, 4) | Class category of infected monolayers in plaque assay | VACCINIA PLAQUE ASSAY 2 | VACCINIA Plaque Assay |
| --- | --- | --- | --- | --- |
| COc1ccc(-c2n[nH]c3nc(-c4cccc(NC(C)=O)c4)ccc23)cc1 [APcK-101] | damaged monolayer |  |  |  |
| Cc1ccc(-n2c(=O)[nH]c3c(C(N)=O)nc(C4CCCCC4)nc32)cc1 [dm-I-203] |  | Class III | PINPOINTS | SMALL PLAQUES |
| O=C(c1ccccc1)c1ccc(-c2ccc3c(-c4ccc(Cl)c(F)c4)n[nH]c3n2)cc1 [APcK-35] |  | Class III | NO PLAQUES | SMALL PLAQUES, NO COMETS |
| Cn1c(=O)c(-c2c(Cl)cccc2Cl)cc2cnc(Nc3ccc(Br)cc3)nc21 [PD-Br] |  | Class III | NO PLAQUES | SMALL PLAQUES, CPE |
| COc1ccc(-c2n[nH]c3nc(-c4ccc(C(=O)c5ccccc5)cc4)ccc23)cc1 [APcK-34] | small plaque and large comets; also recorded: small plaques with large comets |  |  | SMALL PLAQUES, LARGE COMETS |
| COc1ccc(OC)c(S(=O)(=O)Nc2cccc(-c3ccc4nnc(-c5cccs5)n4n3)c2)c1 [YYB44] |  | Class II | SMALL PLAQUES | MEDIUM PLAQUES |
| COc1ccccc1NS(=O)(=O)c1cccc(NC(=O)CCOc2ccc3c(=O)[nH]ccc3c2)c1 [JAK2F] |  | Class II | SLIGHTLY SMALLER PLAQUES | SMALL PLAQUES |
| Cc1ccc(-n2c(=O)[nH]c3c(C(N)=O)nc(-c4ccc([N+](=O)[O-])cc4[N+](=O)[O-])nc32)cc1 [dm-I-180] |  |  |  | LARGE TAILS |
| O=C(Nc1cccc(-c2ccc(Cl)nn2)c1)Oc1ccccc1 [LG2-111] |  |  |  | PINPOINT PLAQUES |
| COc1ccccc1Nc1cc(-c2ccc3[nH]ccc3c2)ncn1 [Eph2_wbz 216] |  | Class III | NO PLAQUES | SLIGHTLY SMALLER PLAQUES |
| O=C(Nc1cccc(-c2ccc3nncn3n2)c1)c1cccc([N+](=O)[O-])c1 [YYB31] |  | Class III | PINPOINTS | FEW COMETS |
| COc1ccc(Nc2nccn3c(Br)cnc23)cc1 [LG2-9] |  | Class III | PINPOINTS | SLIGHTLY SMALLER PLAQUES |
| COc1cc(OC)cc(-c2ccc3c(-c4ccc(Cl)c(F)c4)n[nH]c3n2)c1 [APcK-111] | pinpoint plaque formations; also recorded: pinpoint plaques | Class III | PINPOINT PLAQUES | PINPOINT PLAQUES |
| CCOC(=O)c1ccc(-c2n[nH]c3nc(-c4ccc(NC(C)=O)cc4)ccc23)cc1 [APcK-19] |  |  | SMALL PLAQUES |  |
| CCOC(=O)c1ccc(-c2ccc3c(-c4ccc(Cl)c(F)c4)n[nH]c3n2)cc1 [APcK-49] |  |  | SMALL PLAQUES |  |
| Cc1ccc(-n2c(=O)[nH]c3c(C(N)=O)nc(-c4c(F)cc(Cl)cc4F)nc32)cc1 [dm-I-187] | small plaques with no comets; also recorded: smaller (pinpoint) plaques with no comets | Class III | NO PLAQUES | SMALL PLAQUES |
| Cc1ccc(-n2c(=O)[nH]c3c(C(N)=O)nc(-c4c(Cl)cccc4[N+](=O)[O-])nc32)cc1 [dm-I-193] |  | Class III | NO PLAQUES | SMALL PLAQUES |
| Cc1ccc(NC(=O)c2ccc(CN3CCN(CCF)CC3)cc2)cc1Nc1nccc(-c2cccnc2)n1 [STLF2] |  | Class III | NO PLAQUES | PIN POINT PLAQUES |
| CC(=O)Nc1cccc(-c2ccc3c(-c4ccc(C#N)cc4)n[nH]c3n2)c1 [APcK-44] |  | Class III | PINPOINT PLAQUES | SMALL PLAQUES WITH COMETS |
| CCOC(=O)c1ccc(-c2ccc3c(-c4ccc(C(=O)OCC)cc4)n[nH]c3n2)cc1 [APcK-48] |  | Class III | SMALL PLAQUES | PINPOINT PLAQUES |
| Cc1ccc(-c2ccnc(Nc3cc(NC(=O)c4ccc(CN5CCN(C)CC5)cc4)ccc3C)n2)cn1 [WBZ-4] |  | Class II | SMALL PLAQUES | SMALL PLAQUES |
| COc1ccccc1NS(=O)(=O)c1cccc(Nc2cc(-c3ccc(OC(C)=O)cc3)ncn2)c1 [Eph2_wbz 105] | small plaques with comets | Class III | NO PLAQUES | SMALLER PLAQUES THAN WT |
| Cc1cc(-c2ccc3c(-c4ccc(Cl)c(F)c4)n[nH]c3n2)cc(C)c1O [APcK-107] |  | Class II | SMALLER PLAQUES THAN WT | SMALLER PLAQUES THAN WT |

| Structure (SMILES) | Plaque phenotype due to drug treatment (FIGS. 1, 2, 4) | Class category of infected monolayers in plaque assay | VACCINIA PLAQUE ASSAY 2 | VACCINIA Plaque Assay |
| --- | --- | --- | --- | --- |
| Cc1ccc(NC(=O)c2ccc(CN3CCN(Cc4ccc(I)cc4)CC3)cc2)cc1Nc1nccc(-c2cccnc2)n1 [STLL3] |  | Class III | NO PLAQUES | PINPOINT PLAQUES |
| CN1CCOc2cc(/C=C3\SC(=O)NC3=O)ccc21 [AS-605091, reference compound] |  | Class III | PINPOINT PLAQUES | SMALL PLAQUES |
| CCOC(=O)c1ccc(-c2n[nH]c3nc(-c4cc(C)c(O)c(C)c4)ccc23)cc1 [APcK-106] |  | Class III | PINPOINT PLAQUES | SMALLER PLAQUES THAN WT |
| O=C(Nc1cccc(-c2ccc3nnc(-c4ccc[nH]4)n3n2)c1)c1cccc([N+](=O)[O-])c1 [YYB34] |  |  |  | LARGE COMETS |
| Cc1ccc(NC(=O)c2ccc(CN3CCN(CCO)CC3)cc2)cc1Nc1nccc(-c2cccnc2)n1 [STI-OH] |  | Class III | SMALL PLAQUES | PINPOINT PLAQUES |
| Brc1cnc2c(NCc3cccs3)nccn12 [LG2-95] |  | Class III | NO PLAQUES | PINPOINT PLAQUES |
| Cc1ccc(NC(=O)c2ccc(CN3CCN(C)CC3)cc2)cc1Nc1nccc(-c2cnccc2C)n1 [StiAF3_Ue] |  | Class III | NO PLAQUES | NO PLAQUES |
| COc1ccccc1Nc1cc(-c2ccc(NC(=O)CCC(=O)O)cc2)ncn1 [Eph2_wbz 217] |  |  |  | SLIGHTLY SMALLER PLAQUES |
| Cn1c(=O)c(-c2c(Cl)cccc2Cl)cc2cnc(Nc3cccc(N)n3)nc21 [YYA104] |  | Class III | NO PLAQUES | PINPOINT PLAQUES |
| Cc1ccc(-c2n[nH]c3nc(-c4ccc(C(=O)c5ccccc5)cc4)ccc23)cc1F [APcK-37] |  |  | SMALL PLAQUES |  |
| O=C(Nc1cccc(-c2ccc3nnc(-c4cccs4)n3n2)c1)c1cccc([N+](=O)[O-])c1 [YYB32] |  | Class III | SMALL PLAQUES | SMALLER PLAQUES |
| CC(=O)Nc1ccc(-c2ccc3c(-c4ccc(C)c(F)c4)n[nH]c3n2)cc1 [APcK-28] |  |  | SMALL PLAQUES |  |
| Fc1ccc(CNc2nccn3c(Br)cnc23)cc1 [LG2-91] | no pinpoint plaque formed; also recorded: no plaques | Class III | NO PLAQUES | NO PLAQUES |
| COc1ccc(-c2n[nH]c3nc(-c4ccc(O)cc4OC)ccc23)cc1 [APcK-31] |  |  | SMALL PLAQUES |  |
| COc1ccccc1NS(=O)(=O)c1cccc(Nc2cc(-c3ccc(O)cc3)ncn2)c1 [Eph2_wbz 102] |  | Class III | no plaques | NO PLAQUES |
| Cn1c(=O)c(-c2c(Cl)cccc2Cl)cc2cnc(NC3CCCCC3)nc21 [YYA194] |  | Class III | NO PLAQUES | PINPOINT PLAQUES |
| CC(=O)Nc1ccc(-c2ccc3c(-c4ccc(Cl)cc4Cl)n[nH]c3n2)cc1 [APcK-26] | pinpoint plaque formations; also recorded: pinpoint plaques | Class III | SMALL PLAQUES | PINPOINT PLAQUES |
| CCN(CC)CCNC(=O)/C=C\C(=O)Nc1ccc2ncnc(Nc3cccc(I)c3)c2c1 [JGAP-11] |  |  |  | MORE PLAQUES THAN WT |
| NC(=O)c1cccc(-c2ccc3c(-c4ccc(F)cc4)n[nH]c3n2)c1 [APcK-115] |  |  | SMALL PLAQUES |  |
| COc1cc(C(=O)Nc2cccc(-c3ccc4nnc(-c5ccccc5)n4n3)c2)cc(OC)c1OC [YYB21] | damaged monolayer |  |  |  |
| CCOC(=O)c1ccc(-c2n[nH]c3nc(-c4cccc(NC(C)=O)c4)ccc23)cc1 [APcK-105] | no pinpoint plaque formed; also recorded: no plaques | Class III | PINPOINT PLAQUES | NO PLAQUES |
| O=C(c1ccccc1)c1ccc(-c2ccc3c(-c4ccc(Br)cc4F)n[nH]c3n2)cc1 [APcK-39] |  |  | NO PLAQUES |  |
| COc1ccc(-c2nc(C(N)=O)c3[nH]c(=O)n(-c4ccc(C)cc4)c3n2)cc1OC [dm-I-196] | small plaques with no comets; also recorded: smaller (pinpoint) plaques with no comets | Class III | PINPOINTS | SMALL PLAQUES, NO TAILS |
